Where two headings read alike, the source gives them in different places.
Assays:
[1] = test system: Wnt activity (Wnt-responsive SP5 promoter luciferase reporter in SW480 cells); experiment: Wnt activity reporter assay: SW480 cells with SP5 promoter-driven firefly luciferase; type: cell-based; conditions: 24 h after compound addition, read-out: Wnt inhibition
Source text: The above synthesized compounds were screened using the assay procedure for Wnt activity described below.
Reporter cell lines were generated by stably transducing cells of cancer cell lines (e.g., colon cancer) with a lentiviral construct that include a Wnt-responsive promoter driving expression of the firefly luciferase gene.
Lentiviral constructs were made in which the SP5 promoter, a promoter having eight TCF/LEF binding sites derived from the SP5 promoter, was linked upstream of the firefly luciferase gene. The lentiviral constructs included a hygromycin resistance gene as a selectable marker. The SP5 promoter construct was used to transduce SW480 cells, a colon cancer cell line having a mutated APC gene that generates a truncated APC protein, leading to de-regulated accumulation of β-catenin.
Cultured SW480 cells bearing a reporter construct were distributed at approximately 10,000 cells per well into 384 well multiwell plates. Compounds were then added to the wells in half-log dilutions using a three micromolar top concentration. A series of control wells for each cell type received only buffer and compound solvent. Twenty-four hours after the addition of compound, reporter activity for luciferases was assayed, for example, by addition of the BrightGlo luminescence reagent (Promega) and the Victor3 plate reader (Perkin Elmer). Readings were normalized to DMSO only treated cells, and normalized activities were then used for the IC50 calculations.

DYRK1A = DYRK1A (Homo sapiens (Human), UniProt Q13627); experiment: DYRK1A activity Tau assay: pSer396 Tau in SH-SY5Y cells by ELISA / western blot; type: cell-based; conditions: overnight (16-18 h) exposure
Source text: In another example, in vitro assays for DYRK1A biological activity may be used, e.g. regulation of microtubule-associated protein tau (MAPT/Tau) phosphorylation in neuronal cell line such as the human SH-SY5Y neuroblastoma cell line. Assays for DYRK1a-regulated level of phosphorylation can include monitoring levels of basal pSer396 Tau, which can be measured, for example, by serial dilutions of a candidate inhibitor composition using a ten micromolar top concentration and detected by ELISA or Western Blotting. An exemplary assay for DYRK-1a-regulated phosphorylation uses the SH-SY5Y cells cultured in a 96 well plate format for a period of time sufficient to stabilize microtubules and Tau phosphorylation, usually at least 2 days, then treated with a 1/3 serial dilution of compounds overnight and lysed. The cell lysate is resolved by SDS PAGE, then transferred to nitrocellulose and probed with an antibody specific for pSer396 Tau.
In a further example, the activity of a candidate compound can be measured by ELISA by adding the lysate mentioned above onto total Tau-coated plates and detected with a specific pSer396 antibody.

Compound	IC50 [1]	EC50 (DYRK1A)	IC50 ([1]; Homo sapiens)
5-(5-(Piperidin-1-ylmethyl)pyridin-3-yl)-N-(2-(pyrrolidin-1-yl)pyridin-4-yl)-1H-indazole-3-carboxamide [Compound 100]	2600 nM	2 nM	
CN1CCC(NC(=O)c2n[nH]c3ccc(-c4cccnc4)cc23)CC1 [Compound 1, N-(1-Methylpiperidin-4-yl)-5-(pyridin-3-yl)-1H-indazole-3-carboxamide]		65 nM	1300 nM
O=C(NC1CCNCC1)c1n[nH]c2ccc(-c3cccnc3)cc12 [Compound 3, N-(Piperidin-4-yl)-5-(pyridin-3-yl)-1H-indazole-3-carboxamide]		28 nM	6440 nM
O=C(NC1CCCCC1)c1n[nH]c2ccc(-c3cccnc3)cc12 [Compound 4, N-Cyclohexyl-5-(pyridin-3-yl)-1H-indazole-3-carboxamide]		35 nM	4460 nM
O=C(NC1CCC1)c1n[nH]c2ccc(-c3cccnc3)cc12 [Compound 5, N-Cyclobutyl-5-(pyridin-3-yl)-1H-indazole-3-carboxamide]		18 nM	11900 nM
O=C(NC1CC1)c1n[nH]c2ccc(-c3cccnc3)cc12 [Compound 6, N-Cyclopropyl-5-(pyridin-3-yl)-1H-indazole-3-carboxamide]		22 nM	5530 nM
CN1CCC(NC(=O)c2n[nH]c3ccc(-c4cncc(CN5CCC5)c4)cc23)CC1 [Compound 8, 5-(5-(Azetidin-1-ylmethyl)pyridin-3-yl)-N-(1-methylpiperidin-4-yl)-1H-indazole-3-carboxamide]		53 nM	6290 nM
O=C(NC1CC1)c1n[nH]c2ccc(-c3cncc(CN4CCCCC4)c3)cc12 [Compound 9, N-Cyclopropyl-5-(5-(piperidin-1-ylmethyl)pyridin-3-yl)-1H-indazole-3-carboxamide]		2 nM	2910 nM
O=C(NC1CC1)c1n[nH]c2ccc(-c3cc(F)cc(CN4CCCCC4)c3)cc12 [Compound 11, N-Cyclopropyl-5-(3-fluoro-5-(piperidin-1-ylmethyl)phenyl)-1H-indazole-3-carboxamide]		36 nM	7950 nM
CN1CCC(NC(=O)c2n[nH]c3ccc(-c4ccccc4F)cc23)CC1 [Compound 16, 5-(2-Fluorophenyl)-N-(1-methylpiperidin-4-yl)-1H-indazole-3-carboxamide]		335 nM	14600 nM
CN1CCC(NC(=O)c2n[nH]c3ccc(-c4ccc(F)c(F)c4)cc23)CC1 [Compound 19, 5-(3,4-Difluorophenyl)-N-(1-methylpiperidin-4-yl)-1H-indazole-3-carboxamide]		848 nM	6800 nM
CN1CCC(NC(=O)c2n[nH]c3ccc(-c4cc(F)cc(F)c4)cc23)CC1 [Compound 21, 5-(3,5-Difluorophenyl)-N-(1-methylpiperidin-4-yl)-1H-indazole-3-carboxamide]		744 nM	1310 nM
O=C(NCc1cccc(F)c1)c1n[nH]c2ccc(-c3cncc(CN4CCCCC4)c3)cc12 [Compound 27, N-(3-Fluorobenzyl)-5-(5-(piperidin-1-ylmethyl)pyridin-3-yl)-1H-indazole-3-carboxamide]		2 nM	1760 nM
O=C(NCc1cc(F)cc(F)c1)c1n[nH]c2ccc(-c3cncc(CN4CCCCC4)c3)cc12 [Compound 28, N-(3,5-Difluorobenzyl)-5-(5-(piperidin-1-ylmethyl)pyridin-3-yl)-1H-indazole-3-carboxamide]		2 nM	3100 nM
O=C(NCc1ccccc1)c1n[nH]c2ccc(-c3cc(F)cc(CN4CCCCC4)c3)cc12 [Compound 29, N-Benzyl-5-(3-fluoro-5-(piperidin-1-ylmethyl)phenyl)-1H-indazole-3-carboxamide]		117 nM	3470 nM
O=C(NC1(c2ccccc2)CC1)c1n[nH]c2ccc(-c3cncc(CN4CCC4)c3)cc12 [Compound 33, 5-(5-(Azetidin-1-ylmethyl)pyridin-3-yl)-N-(1-phenylcyclopropyl)-1H-indazole-3-carboxamide]		63 nM	6700 nM
O=C(NC1(c2ccccc2)CC1)c1n[nH]c2ccc(-c3cncc(CN4CCC(F)(F)C4)c3)cc12 [Compound 35, 5-(5-((3,3-Difluoropyrrolidin-1-yl)methyl)pyridin-3-yl)-N-(1-phenylcyclopropyl)-1H-indazole-3-carboxamide]		85 nM	6390 nM

Compound	IC50 [1]	EC50 (DYRK1A)	IC50 ([1]; Homo sapiens)
O=C(N[C@@H]1C[C@@H]1c1ccccc1)c1n[nH]c2ccc(-c3cccnc3)cc12 [Compound 38, N-((1R,2R)-2-Phenylcyclopropyl)-5-(pyridin-3-yl)-1H-indazole-3-carboxamide]		4 nM	1570 nM
O=C(N[C@@H]1C[C@@H]1c1ccccc1)c1n[nH]c2ccc(-c3cncc(CN4CCCCC4)c3)cc12 [Compound 39, N-((1R,2R)-2-Phenylcyclopropyl)-5-(5-(piperidin-1-ylmethyl)pyridin-3-yl)-1H-indazole-3-carboxamide]		1 nM	490 nM
Cc1cc2[nH]nc(C(=O)Nc3cccnc3)c2cc1-c1cccnc1 [Compound 44, 6-Methyl-N,5-di(pyridin-3-yl)-1H-indazole-3-carboxamide]		23 nM	6120 nM
CN1CCN(c2ccc(NC(=O)c3n[nH]c4ccc(-c5cncc(NC(=O)c6ccc(F)cc6F)c5)cc34)cn2)CC1 [Compound 47, 5-(5-(2,4-Difluorobenzamido)pyridin-3-yl)-N-(6-(4-methylpiperazin-1-yl)pyridin-3-yl)-1H-indazole-3-carboxamide]			333 nM
CN1CCN(c2ccc(NC(=O)c3n[nH]c4ccc(-c5cncc(NC(=O)c6c(F)cccc6F)c5)cc34)cn2)CC1 [Compound 49, 5-(5-(2,6-Difluorobenzamido)pyridin-3-yl)-N-(6-(4-methylpiperazin-1-yl)pyridin-3-yl)-1H-indazole-3-carboxamide]			226 nM
O=C(Nc1cccnc1)c1n[nH]c2ccc(-c3cncc(CN4CC(CO)(CO)C4)c3)cc12 [Compound 50, 5-(5-((3,3-Bis(hydroxymethyl)azetidin-1-yl)methyl)pyridin-3-yl)-N-(pyridin-3-yl)-1H-indazole-3-carboxamide]			10000 nM
O=C(Nc1ccccn1)c1n[nH]c2ccc(-c3cncc(CN4CCCCC4)c3)cc12 [Compound 56, 5-(5-(Piperidin-1-ylmethyl)pyridin-3-yl)-N-(pyridin-2-yl)-1H-indazole-3-carboxamide]		3 nM	1100 nM
O=C(Nc1ncc(F)cc1F)c1n[nH]c2ccc(-c3cncc(CN4CCCCC4)c3)cc12 [Compound 58, N-(3,5-Difluoropyridin-2-yl)-5-(5-(piperidin-1-ylmethyl)pyridin-3-yl)-1H-indazole-3-carboxamide]		3 nM	4010 nM
[2H]C([2H])([2H])Oc1ccc(NC(=O)c2n[nH]c3ccc(-c4cncc(CN5CCCCC5)c4)cc23)cn1 [Compound 68, N-(6-(Methoxy-d3)pyridin-3-yl)-5-(5-(piperidin-1-ylmethyl)pyridin-3-yl)-1H-indazole-3-carboxamide]			57 nM
[2H]C([2H])([2H])Oc1ccc(NC(=O)c2n[nH]c3ccc(-c4cncc(C([2H])([2H])N5CCCCC5)c4)cc23)cn1 [Compound 69, N-(6-(methoxy-d3)pyridin-3-yl)-5-(5-(piperidin-1-ylmethyl-d2)pyridin-3-yl)-1H-indazole-3-carboxamide]			45 nM
O=C(Nc1ccc(OC(CO)CO)nc1)c1n[nH]c2ccc(-c3cncc(CN4CCCCC4)c3)cc12 [Compound 70, N-(6-((1,3-Dihydroxypropan-2-yl)oxy)pyridin-3-yl)-5-(5-(piperidin-1-ylmethyl)pyridin-3-yl)-1H-indazole-3-carboxamide]			500 nM
O=C(Nc1ccc(N2CC(CO)(CO)C2)nc1)c1n[nH]c2ccc(-c3cncc(CN4CCCCC4)c3)cc12 [Compound 72, N-(6-(3,3-Bis(hydroxymethyl)azetidin-1-yl)pyridin-3-yl)-5-(5-(piperidin-1-ylmethyl)pyridin-3-yl)-1H-indazole-3-carboxamide]			1500 nM
O=C(Nc1cccnc1)c1n[nH]c2ccc(-c3cncc(CN4CCS(=O)(=O)CC4)c3)cc12 [Compound 86, 5-(5-((1,1-Dioxidothiomorpholino)methyl)pyridin-3-yl)-N-(pyridin-3-yl)-1H-indazole-3-carboxamide]			210 nM
O=C(Nc1cnccn1)c1n[nH]c2ccc(-c3cncc(CN4CCCCCC4)c3)cc12 [Compound 88, 5-(5-(Azepan-1-ylmethyl)pyridin-3-yl)-N-(pyrazin-2-yl)-1H-indazole-3-carboxamide]			430 nM
CC(C)OCCCNC(=O)c1n[nH]c2ccc(-c3cncc(F)c3)cc12 [Compound 1263, 5-(5-Fluoropyridin-3-yl)-N-(3-isopropoxypropyl)-1H-indazole-3-carboxamide]			1400 nM
COc1cccc(-c2ccc3[nH]nc(C(=O)NC(C)C)c3c2)c1F [Compound 1339, 5-(2-Fluoro-3-methoxyphenyl)-N-isopropyl-1H-indazole-3-carboxamide]		> 10000 nM	
O=C(Nc1ccc(CN2CCCC2)cc1)c1n[nH]c2cc(F)c(-c3cccnc3)cc12 [Compound 1345, 6-Fluoro-5-(pyridin-3-yl)-N-(4-(pyrrolidin-1-ylmethyl)phenyl)-1H-indazole-3-carboxamide]		22 nM	
